# Reference: US7053177B1, “Random peptides that bind to gastro-intestinal tract (GIT) transport receptors and related methods” (Cytogen Corporation, priority 1997, dated 2006)
# Ends that are not written are not given here. Peptide text beside a SMILES is read from it. * marks the point of attachment. Dansyl = CN(C)c1cccc2c(S(=O)(=O)*)cccc12; K(dns) = dansyl-lysine
# Test system: P100 membrane fraction of Caco-2 cells
# Assay: Dansylated peptide ELISA: relative binding of PAX2 and HAX42 peptides to P100 fractions (ratio to ZElan021)
# Conditions: ratio to ZElan021 = 1.00
# Protocol: The peptides and proteins were analyzed by a dansylated peptide ELISA method in which 96 well plates were coated overnight at 4° C. with 100 μl/well coating protein (normally 100 μg/ml P100 membrane fraction) in 0.05M carbonate buffer pH9.6. Nonspecific binding was blocked using 200 μl/well, 2% Marvel/PBS for 2 hours at 37° C. prior to incubation with dansylated peptides. The plates were washed three times with PBS/0.05% Tween 20 and after each subsequent incubation step. […] A buffer blank control was included to ensure that background binding to plastic was not due to the antibodies used in the assay system. […] Plates were developed using 75 μl/well Bionostics TMB substrate and incubated for approximately 10 minutes. The developing reaction was stopped using Bionostics Red Stop solution (25 μl/well), and the optical density of the plates was read at 650 nm. […]
Compound,"Binding value at 20 μg/ml (PAX2 peptides, first column)",Binding value at 50 μg/ml (Jackson Ab) (PAX2 peptides),Binding value at 50 μg/ml (Southern Ab) (PAX2 peptides),"Binding value at 50 μg/ml (PAX2 peptides, first column)","Binding value at 50 μg/ml (PAX2 peptides, second column)",also measured
CC(C)C[C@H](NC(=O)[C@H](CCCNC(=N)N)NC(=O)[C@H](CCCNC(=N)N)NC(=O)[C@H](CC(N)=O)NC(=O)[C@H](C)NC(=O)[C@H](CO)NC(=O)[C@H](CO)NC(=O)[C@@H](N)CCCCNS(=O)(=O)c1cccc2c(N(C)C)cccc12)C(=O)N[C@@H](CCCNC(=N)N)C(=O)N[C@H](C(=O)N[C@@H](CCCNC(=N)N)C(N)=O)[C@@H](C)O [ZElan075] (H-K(Dansyl)SSANRRLRTR-NH2),0.13,0.47,0.32,0.52,0.38,
CC(C)C[C@H](NC(=O)[C@H](CCCNC(=N)N)NC(=O)[C@H](C)NC(=O)[C@H](CC(N)=O)NC(=O)[C@H](Cc1c[nH]cn1)NC(=O)[C@H](CO)NC(=O)[C@H](CO)NC(=O)[C@@H](N)CCCCNS(=O)(=O)c1cccc2c(N(C)C)cccc12)C(=O)N[C@@H](CCCNC(=N)N)C(=O)N[C@H](C(=O)N[C@@H](CCCNC(=N)N)C(N)=O)[C@@H](C)O [ZElan077] (H-K(Dansyl)SSHNARLRTR-NH2),0.20,0.73,0.52,0.76,0.54,
CC(C)C[C@H](NC(=O)[C@H](CCCNC(=N)N)NC(=O)[C@H](CCCNC(=N)N)NC(=O)[C@H](CC(N)=O)NC(=O)[C@H](Cc1c[nH]cn1)NC(=O)[C@H](CO)NC(=O)[C@H](CO)NC(=O)[C@H](Cc1c[nH]cn1)NC(=O)[C@H](CCCCN)NC(=O)[C@H](C)NC(=O)[C@H](CC(N)=O)NC(=O)[C@@H](NC(=O)[C@@H](N)CCCCNS(=O)(=O)c1cccc2c(N(C)C)cccc12)[C@@H](C)O)C(=O)N[C@@H](CCCNC(=N)N)C(=O)N[C@H](C(=O)N[C@@H](CCCNC(=N)N)C(=O)N[C@@H](CO)C(=O)N[C@@H](CCCNC(=N)N)C(=O)N1CCC[C@H]1C(=O)N[C@@H](CC(N)=O)C(N)=O)[C@@H](C)O [ZElan032] (H-K(Dansyl)TNAKHSSHNRRLRTRSRPN-NH2),,,,0.95,,
CC(C)C[C@H](NC(=O)[C@H](CCCNC(=N)N)NC(=O)[C@H](CCCNC(=N)N)NC(=O)[C@H](CC(N)=O)NC(=O)[C@H](Cc1c[nH]cn1)NC(=O)[C@H](CO)NC(=O)[C@H](CO)NC(=O)[C@@H](N)CCCCNS(=O)(=O)c1cccc2c(N(C)C)cccc12)C(=O)N[C@@H](CCCNC(=N)N)C(=O)N[C@H](C(=O)N[C@@H](CCCNC(=N)N)C(N)=O)[C@@H](C)O [ZElan035] (H-K(Dansyl)SSHNRRLRTR-NH2),0.12,,,0.81,0.77,"Binding value at 20 μg/ml (PAX2 peptides, second column): 0.43"
C[C@H](NC(=O)[C@H](CCCNC(=N)N)NC(=O)[C@H](CCCNC(=N)N)NC(=O)[C@H](CC(N)=O)NC(=O)[C@H](Cc1c[nH]cn1)NC(=O)[C@H](CO)NC(=O)[C@H](CO)NC(=O)[C@@H](N)CCCCNS(=O)(=O)c1cccc2c(N(C)C)cccc12)C(=O)N[C@@H](CCCNC(=N)N)C(=O)N[C@H](C(=O)N[C@@H](CCCNC(=N)N)C(N)=O)[C@@H](C)O [ZElan079] (H-K(Dansyl)SSHNRRARTR-NH2),0.31,0.83,0.53,0.97,0.68,
CC(C)C[C@H](NC(=O)[C@H](CCCNC(=N)N)NC(=O)[C@H](CCCNC(=N)N)NC(=O)[C@H](CC(N)=O)NC(=O)[C@H](Cc1c[nH]cn1)NC(=O)[C@H](CO)NC(=O)[C@H](C)NC(=O)[C@@H](N)CCCCNS(=O)(=O)c1cccc2c(N(C)C)cccc12)C(=O)N[C@@H](CCCNC(=N)N)C(=O)N[C@H](C(=O)N[C@@H](CCCNC(=N)N)C(N)=O)[C@@H](C)O [ZElan073] (H-K(Dansyl)ASHNRRLRTR-NH2),0.07,0.66,0.49,−0.11,0.49,
CC(C)C[C@H](NC(=O)[C@H](C)NC(=O)[C@H](CCCNC(=N)N)NC(=O)[C@H](CC(N)=O)NC(=O)[C@H](Cc1c[nH]cn1)NC(=O)[C@H](CO)NC(=O)[C@H](CO)NC(=O)[C@@H](N)CCCCNS(=O)(=O)c1cccc2c(N(C)C)cccc12)C(=O)N[C@@H](CCCNC(=N)N)C(=O)N[C@H](C(=O)N[C@@H](CCCNC(=N)N)C(N)=O)[C@@H](C)O [ZElan078] (H-K(Dansyl)SSHNRALRTR-NH2),0.11,0.68,0.47,0.87,0.69,
CC(C)C[C@H](NC(=O)[C@H](CCCNC(=N)N)NC(=O)[C@H](CCCNC(=N)N)NC(=O)[C@H](CC(N)=O)NC(=O)[C@H](Cc1c[nH]cn1)NC(=O)[C@H](CO)NC(=O)[C@H](CO)NC(=O)[C@@H](N)CCCCNS(=O)(=O)c1cccc2c(N(C)C)cccc12)C(=O)N[C@@H](C)C(=O)N[C@H](C(=O)N[C@@H](CCCNC(=N)N)C(N)=O)[C@@H](C)O [ZElan080] (H-K(Dansyl)SSHNRRLATR-NH2),0.23,0.67,0.38,0.84,0.45,
H2N—K(dns)SDNAKEPGDYNCCGNGNSTG ({K(dns)}-SDNAKEPGDYNCCGNGNSTG-NH2; cysteine pairing not given here) [ZElan088],,,,,,"Binding value at 25 μg/ml (HAX42 peptides, first column): 2.21; Binding value at 25 μg/ml (HAX42 peptides, second column): 1.41; Binding value at 25 μg/ml (HAX42 peptides, third column): 1.63"
CC(C)C[C@H](NC(=O)[C@H](CCCNC(=N)N)NC(=O)[C@H](CCCNC(=N)N)NC(=O)[C@H](CC(N)=O)NC(=O)[C@H](Cc1c[nH]cn1)NC(=O)[C@H](CO)NC(=O)[C@H](CO)NC(=O)[C@@H](N)CCCCNS(=O)(=O)c1cccc2c(N(C)C)cccc12)C(=O)N[C@@H](CCCNC(=N)N)C(=O)N[C@@H](C)C(=O)N[C@@H](CCCNC(=N)N)C(N)=O [ZElan081] (H-K(Dansyl)SSHNRRLRAR-NH2),0.01,,,0.89,0.47,
H2N—K(dns)SDHALGTNLRSDNAK ({K(dns)}-SDHALGTNLRSDNAK; not fully specified (C-terminus); printed as H2N—K(dns)SDHALGTNLRSDNAK) [ZElan089],,,,,,"Binding value at 25 μg/ml (HAX42 peptides, first column): 0.55; Binding value at 25 μg/ml (HAX42 peptides, second column): 0.44; Binding value at 25 μg/ml (HAX42 peptides, third column): 0.49"
CC(C)C[C@H](NC(=O)[C@H](CCCNC(=N)N)NC(=O)[C@H](CCCNC(=N)N)NC(=O)[C@@H](N)CCCCNS(=O)(=O)c1cccc2c(N(C)C)cccc12)C(=O)N[C@@H](CCCNC(=N)N)C(=O)N[C@H](C(=O)N[C@@H](CCCNC(=N)N)C(=O)N[C@@H](CO)C(=O)N[C@@H](CCCNC(=N)N)C(N)=O)[C@@H](C)O [ZElan057] (H-K(Dansyl)RRLRTRSR-NH2),0.08,,,0.56,0.25,
"CC(C)C[C@H](NC(=O)[C@H](CCCNC(=N)N)NC(=O)[C@H](CCCNC(=N)N)NC(=O)[C@@H](N)CCCCNS(=O)(=O)c1cccc2c(N(C)C)cccc12)C(=O)N[C@@H](CCCNC(=N)N)C(=O)N[C@H](C(=O)N[C@@H](CCCNC(=N)N)C(N)=O)[C@@H](C)O [ZElan058, H2N-K(dns)RRLRTR-CONH2] (H-K(Dansyl)RRLRTR-NH2)",0.05,,,0.47,0.16,
"CN(C)c1cccc2c(S(=O)(=O)NCCCC[C@H](N)C(=O)N[C@@H](CC(N)=O)C(=O)N[C@@H](CCCNC(=N)N)C(=O)N[C@@H](CCCNC(=N)N)C(=O)N[C@@H](CCCNC(=N)N)C(=O)N3CCC[C@H]3C(=O)N[C@@H](CO)C(N)=O)cccc12 [ZElan067, H2N-K(dns)NRRRPS-CONH2] (H-K(Dansyl)NRRRPS-NH2)",,,,,,"Binding value at 20 μg/ml (HAX42 peptides): 0.08; Binding value at 50 μg/ml (HAX42 peptides, first column): 0.52; Binding value at 50 μg/ml (HAX42 peptides, second column): 0.40"
H2N—K(dns)NCCGNGNSTG ({K(dns)}-NCCGNGNSTG-NH2; cysteine pairing not given here) [ZElan093],,,,,,"Binding value at 25 μg/ml (HAX42 peptides, first column): 1.88; Binding value at 25 μg/ml (HAX42 peptides, second column): 1.37; Binding value at 25 μg/ml (HAX42 peptides, third column): 1.33"
